Test [1] has as its target T1, GST-CIB1 : F-scrambled peptide (Homo sapiens, UniProt Q99828).
T1 construct: made in house; host or cells: BL-21 plus RIL cells (E. coli)
T1 sequence (Q99828 1-191): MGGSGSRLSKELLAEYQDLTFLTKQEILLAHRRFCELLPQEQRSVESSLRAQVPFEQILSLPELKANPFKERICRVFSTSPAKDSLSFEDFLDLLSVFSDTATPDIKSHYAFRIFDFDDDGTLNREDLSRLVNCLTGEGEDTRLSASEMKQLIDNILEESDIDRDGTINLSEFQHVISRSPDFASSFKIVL
In words: FP scrambled-peptide counter screen, 1536-well format. Type of test: binding. The following applies: for IC50: read-out: IC50 [μM] (counterscreen). For orientation: The purpose of a counterscreen is to sort out artefacts and off-target activity.

Test [2] deals with T2, CIB1 and αIIb interaction (CIB1-GST : F-αIIb peptide) (Homo sapiens, UniProt Q99828).
T2 construct: made in house; host or cells: BL-21 plus RIL cells (E. coli)
T2 sequence (Q99828 1-191): T1 sequence (Q99828 1-191)
In words: FP assay, 1536-well qHTS format (primary and confirmatory screen). Type of test: binding. (Quantitative high-throughput screening tests each substance at several concentrations.)

The mark [3] stands for this setting: counterscreen, qHTS curve class, negative sign = inhibitory curve.
[4] abbreviates: confirmatory screen, qHTS curve class, negative sign = inhibitory curve.
Where [5] appears, read: confirmatory screen, read-out: IC50 [μM] (confirmatory screen).
[6] abbreviates: qHTS FP screen hits, Table S2, negative = inhibition.
The mark [7] stands for this setting: qHTS FP screen hits, Table S2, one class per curve where COUNT > 1, negative sign = inhibitory curve.
[8] abbreviates: qHTS FP screen hits, Table S2, read-out: IC50.
Where [9] appears, read: Table S3, counterscreen, negative = inhibition.
Where [10] appears, read: Table S3, confirmatory screen, qHTS curve class, a negative sign marks inhibitory curves.
The mark [11] stands for this setting: Table S3, confirmatory screen, negative = inhibition.
Where [12] appears, read: qHTS primary screen hits, Table S2, negative = inhibition.
Setting [13] is: qHTS primary screen hits, Table S2, negative sign = inhibitory curve, several classes where COUNT > 1.
The mark [14] stands for this setting: qHTS primary screen hits, Table S2, read-out: IC50.
[15] abbreviates: Table S3, counterscreen, qHTS curve class, a negative sign marks inhibitory curves.
[16] abbreviates: Table S3, confirmatory screen, YES/NO call.

Like-named read-outs stand apart in the source and are kept apart here.

As usually defined, the IC50 is the point on the concentration scale where inhibition reaches its midpoint. As for `C=C1C(OC(=O)/C(C)=C\C)[C@@]23CCC4[C@@](C)(CCC[C@@]4(C)C(=O)O)C2CC[C@H]1C3OC(C)=O` (stereo partly drawn) [NCGC00381205-01], the “Efficacy (%) (counterscreen)” value in test [1] (counterscreen) was -31%. Besides, the “Curve Class (counterscreen)” value in test [1] (setting [3]) was -1.4. For the same compound, the values for the concentration for half-maximal inhibition (IC50) in test [1] (counterscreen), in test [2] (setting [5]) and in test [2] (setting [8]) were 8.9 µM, 31.6 µM and 20 µM, respectively. Further, in test [2] (confirmatory screen), the “Efficacy (%) (confirmatory screen)” value is on record as -71%. In addition, in test [2] (confirmatory screen, YES/NO), the “Confirm? (confirmatory screen)” value was “YES”. The “Curve Class (confirmatory screen)” value in test [2] (setting [4]) was -2.2. Besides, in test [2] (setting [6]), the “Efficacy (%)” value is on record as -30%. For the same compound, the “Curve Class” value in test [2] (setting [7]) was -2.2.
As for `CC(=O)NC(Cc1c[nH]c2ccccc(=O)c12)C(=O)O` (stereo not drawn) [NCGC00381382-01], the “Efficacy (%) (counterscreen)” value in test [1] (counterscreen) is recorded as -85%. Further, the “Curve Class (counterscreen)” value in test [1] (setting [3]) was -2.2. Also, the values for the IC50 in test [1] (counterscreen), in test [2] (setting [5]) and in test [2] (setting [8]) were 89.1 µM, 44.7 µM and 50.1 µM, respectively. For the same compound, the “Efficacy (%) (confirmatory screen)” value in test [2] (confirmatory screen) is recorded as -74%. The “Confirm? (confirmatory screen)” value in test [2] (confirmatory screen, YES/NO) was “YES”. Moreover, the “Curve Class (confirmatory screen)” value in test [2] (setting [4]) was -2.2. Besides, the “Efficacy (%)” value in test [2] (setting [6]) is reported as -50%. The “Curve Class” value in test [2] (setting [7]) is reported as -2.2.
For `NS(=O)(=O)c1ccc(Cc2c(-c3ccc(F)c(-c4ccc(F)cc4)c3)nn(-c3nc(C(=O)O)cs3)c2C2CC2)cc1F.O=C(O)C(F)(F)F` [NCGC00381623-01], the “Efficacy (%) (counterscreen)” value in test [1] (setting [9]) turned out to be 250%. Moreover, the IC50 in test [1] (Table S3, counterscreen) came to 79.4 µM; in test [2] (setting [14]), 39.8 µM. Further, in test [2] (setting [10]), the “Curve Class (confirmatory screen)” value is given as 3. In addition, the “Efficacy (%) (confirmatory screen)” value in test [2] (setting [11]) was found to be 124%. Besides, in test [2] (setting [12]), the “Efficacy (%)” value is -25%. In addition, the “Curve Class” value in test [2] (setting [13]) is on record as -2.4.
With `Cn1cnc(-c2nccc3c(O)nc(OCCCC(F)(F)F)nc23)c1.O=C(O)C(F)(F)F` [NCGC00381768-02], the “Curve Class (counterscreen)” value in test [1] (setting [15]) was determined as 4. In test [1] (setting [9]), the “Efficacy (%) (counterscreen)” value is recorded as -28%. Besides, the “Curve Class (confirmatory screen)” value in test [2] (setting [10]) was determined as 4. Moreover, the “Efficacy (%) (confirmatory screen)” value in test [2] (setting [11]) is recorded as -16%. In test [2] (setting [12]), the “Efficacy (%)” value was -25%. Also, the “Curve Class” value in test [2] (setting [13]) was -2.4. In test [2] (setting [14]), the IC50 amounted to 31.6 µM.
Consider `COc1ccc2nc3[nH]nc(C)c3c(NCCOCCO)c2c1` [NCGC00384193-04], for which the “Curve Class (counterscreen)” value in test [1] (setting [15]) was -2.2. Moreover, in test [1] (setting [9]), the “Efficacy (%) (counterscreen)” value is given as -75%. The IC50 came out at 89.1 µM in test [1] (Table S3, counterscreen) and 50.1 µM in test [2] (setting [8]). Moreover, in test [2] (setting [16]), the “Confirm? (confirmatory screen)” value is listed as “YES”. Further, in test [2] (setting [10]), the “Curve Class (confirmatory screen)” value is -2.2. Besides, in test [2] (setting [11]), the “Efficacy (%) (confirmatory screen)” value is on record as -47%. The “Efficacy (%)” value in test [2] (setting [6]) was -75%. Besides, the “Curve Class” value in test [2] (setting [7]) was -2.2.
Consider `O=C(c1ccccc1)c1c(O)cc(O)cc1O[C@@H]1O[C@H](CO)[C@@H](O)[C@H](O)[C@H]1O` [NCGC00384934-01], for which the “COUNTERSCREEN Efficacy (%)” value in test [1] (counterscreen) is recorded as -31%. Besides, the “COUNTERSCREEN Curve Class” value in test [1] (counterscreen, qHTS curve class) was determined as 4. For the same compound, in test [2] (confirmatory screen), the “CONFIRMATORY SCREEN Efficacy (%)” value is -21%. In test [2] (confirmatory screen, qHTS curve class), the “CONFIRMATORY SCREEN Curve Class” value was 4. In test [2] (setting [6]), the “Efficacy (%)” value is -29%. Also, in test [2] (setting [7]), the “Curve Class” value is -1.2. In addition, the IC50 in test [2] (setting [8]) amounted to 25.1 µM.
With `COc1ccc(CC(NC(C)=O)C(=O)O)cc1` (stereo not drawn) [NCGC00384987-01], the “Curve Class (counterscreen)” value in test [1] (setting [15]) was -2.1. In addition, the “Efficacy (%) (counterscreen)” value in test [1] (setting [9]) is on record as -105%. For the same compound, the IC50 came to 79.4 µM in test [1] (Table S3, counterscreen); 50.1 µM in test [2] (Table S3, confirmatory screen, read-out: IC50 [μM] (confirmatory screen)); 56.2 µM in test [2] (setting [8]). Also, in test [2] (setting [16]), the “Confirm? (confirmatory screen)” value was “YES”. In addition, the “Curve Class (confirmatory screen)” value in test [2] (setting [10]) is -2.2. The “Efficacy (%) (confirmatory screen)” value in test [2] (setting [11]) is reported as -65%. In addition, the “Efficacy (%)” value in test [2] (setting [6]) is given as -58%. For the same compound, the “Curve Class” value in test [2] (setting [7]) was -2.2.

(Values after PMC11249646, “Small-Molecule Disruptors of the Interaction between Calcium- and Integrin-Binding Protein 1 and Integrin αIIbβ3 as Novel Antiplatelet Agents” (ACS Pharmacology & Translational Science, 2024).)
